Measurements published in patent publication US20060069132A1, “Azolecarboxamide herbicides” (priority 2004, published 2006).

Assays:
common ragweed = experiment: Test C pre-/postemergence herbicide test; type: in vivo, Ambrosia elatior; set-up: key to Plant response rating, Ragweed: 0 = no effect, 100 = complete control
Method in brief: (§1)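 Pre/post spray; non-phytotoxic solvent + surfactant. Post-timing 1–4 leaves, 2–18 cm. Read-out: visual % control vs untreated, day 12–14, greenhouse.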

woolly cupgrass = experiment: Test C pre-/postemergence herbicide test; type: in vivo, Eriochloa villosa
Method in brief: as §1

redroot pigweed = experiment: Test A pre-/postemergence herbicide test; type: in vivo, Amaranthus retroflexus
Method in brief: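 Greenhouse injury scoring (0–100, complete control = 100) at approximately ten days follows simultaneous pre- and postemergence application. Soil received a directed spray after seeding; seedlings of 2–10 cm at the one- to two-leaf stage were sprayed to runoff.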

blackgrass = experiment: Test B postemergence herbicide test; type: in vivo, Alopecurus myosuroides; conditions: for Plant response rating, Blackgrass: visual rating after 13 to 15 days
Method in brief: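 Scale 0–100: zero equals no visible effect, 100 complete control, judged by eye relative to controls. Timing: 13 to 15 days in greenhouse post-treatment. Growth stage at spraying: two leaves (paddy) or one to four leaves, 2–18 cm (postemergence).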

corn = experiment: Test B pre-/postemergence herbicide test; type: in vivo, Zea mays
Method in brief: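 Response was scored visually 13 to 15 days after treatment against untreated greenhouse controls, 0 meaning no effect and 100 complete control. Formulations (solvent mixture plus surfactant) went onto soil after planting, onto foliage of 1- to 4-leaf plants, and onto 2-leaf plants in a flooded paddy set including rice and barnyardgrass.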

soybean = experiment: Test C pre-/postemergence herbicide test; type: in vivo, Glycine max
Method in brief: as §1

[1] = 62 g ai/ha, preemergence, scale 0 to 100
[2] = 125 g ai/ha, scale 0 (no effect) to 100 (complete control), visual, 12 to 14 days, preemergence
[3] = Preemergence, 500 g ai/ha, scale 0 to 100, 0 no effect, 100 complete control
[4] = 250 g ai/ha, scale 0 to 100 (0 no effect, 100 complete control), visual, 12 to 14 days, preemergence
[5] = Postemergence, 500 g ai/ha, 0 to 100 scale, 0 no effect, 100 complete control
[6] = Postemergence, 2000 g ai/ha, 0 to 100 scale, 0 no effect, 100 complete control
[7] = Preemergence, 2000 g ai/ha, visual rating, 0 to 100 scale (0 no effect, 100 complete control)
[8] = preemergence, 500 g ai/ha, visual injury, 0 to 100 scale (0 no effect, 100 complete control)
[9] = postemergence, 125 g ai/ha, visual rating, scale 0 (no effect) to 100 (complete control)
[10] = postemergence, 500 g ai/ha, visual rating, scale 0 (no effect) to 100 (complete control)
[11] = 500 g ai/ha, visual rating 0-100, 0 no effect, 100 complete control, preemergence
[12] = preemergence, 125 g ai/ha, 0 to 100 scale, 0 is no effect, 100 is complete control
[13] = 31 g ai/ha, preemergence, scale 0 to 100
[14] = Preemergence, 500 g ai/ha, visual rating, 0 to 100 scale (0 no effect, 100 complete control)
[15] = Preemergence, 2000 g ai/ha, 0 to 100 scale, 0 no effect, 100 complete control
[16] = Postemergence, 500 g ai/ha, scale 0 (no effect) to 100 (complete control)
[17] = Preemergence, 500 g ai/ha, scale 0 to 100
[18] = Postemergence, 500 g ai/ha, scale 0 to 100
[19] = Postemergence, 250 g ai/ha, scale 0 to 100, 0 no effect, 100 complete control
[20] = postemergence, 125 g ai/ha, scale 0 to 100
[21] = postemergence, 62 g ai/ha, scale 0 to 100
[22] = 250 g ai/ha, scale 0-100, preemergence
[23] = 500 g ai/ha, scale 0 to 100 (0 no effect, 100 complete control), visual, 12 to 14 days, preemergence

Row | Compound | Plant response rating, Ragweed (common ragweed; [1]) | Plant response rating, Ragweed (common ragweed; [2]) | Ragweed plant response rating (common ragweed; [3]) | Plant response rating, Cupgrass, Woolly (woolly cupgrass; [1]) | Plant response rating, Cupgrass, Woolly (woolly cupgrass; [2]) | Plant response rating, Cupgrass, Woolly (woolly cupgrass; [4]) | Cupgrass, Woolly plant response rating (woolly cupgrass; [3]) | Pigweed plant response rating (redroot pigweed; [5]) | Plant response rating, Pigweed (redroot pigweed; [6]) | Pigweed plant response rating (redroot pigweed; [7]) | Pigweed plant response rating (redroot pigweed; [8]) | Blackgrass plant response rating (blackgrass; [9]) | Blackgrass plant response rating (blackgrass; [10]) | Plant response rating, Corn (corn; [11]) | Corn plant response rating (corn; [9]) | Corn plant response rating (corn; [10]) | Plant response rating, Corn (corn; [12]) | Plant response rating, Soybean (soybean; [1]) | Plant response rating, Soybean (soybean; [2]) | Soybean plant response rating (soybean; [3]) | other results
1 | CCNC(=O)c1cc(C)nc(NC(=O)c2cc(C(C)(C)C)nn2CC)c1 [Compound 149] | 0 | 0 | 5 | 0 | 5 | 20 | 70 | 65 | 90 | 95 | 90 | 10 | 40 | 50 | 10 | 30 | 10 | 0 | 0 | 0 | –
2 | CCCCn1nc(C(C)(C)C)cc1C(=O)Nc1cccc(C(=O)NCC)c1 [Compound 41] | – | 0 | – | – | 0 | 30 | – | – | 60 | – | – | – | – | – | – | – | – | – | 0 | – | Plant response rating, Ragweed (common ragweed; [13]): 0; Plant response rating (0 = no effect, 100 = complete control), Ragweed (common ragweed; 62 g ai/ha, preemergence): 0; Plant response rating, Ragweed (common ragweed; [4]): 10; Plant response rating, Cupgrass, Woolly (woolly cupgrass; [13]): 0; Plant response rating (0 = no effect, 100 = complete control), Cupgrass, Woolly (woolly cupgrass; 62 g ai/ha, preemergence): 0; Plant response rating, Pigweed (redroot pigweed; [5]): 40; Pigweed plant response rating (redroot pigweed; [14]): 65; Pigweed plant response rating (redroot pigweed; [15]): 85; Blackgrass plant response rating (blackgrass; Postemergence, 125 g ai/ha, scale 0 (no effect) to 100 (complete control)): 10; Plant response rating, Blackgrass (blackgrass; [16]): 20; Corn plant response rating (corn; [17]): 0; Plant response rating, Soybean (soybean; [13]): 0; Plant response rating (0 = no effect, 100 = complete control), Soybean (soybean; 62 g ai/ha, preemergence): 0; Plant response rating, Soybean (soybean; [4]): 10
3 | CCN(CC)C(=O)c1cccc(NC(=O)c2cc(C(C)(C)C)nn2CC)n1 [Compound 145] | – | 0 | 20 | – | 0 | 0 | 40 | 90 | 100 | 100 | 95 | 10 | 10 | 10 | 10 | 20 | 0 | – | 10 | 60 | Plant response rating (0 = no effect, 100 = complete control), Ragweed (common ragweed; 62 g ai/ha, preemergence): 0; Plant response rating (0 = no effect, 100 = complete control), Cupgrass, Woolly (woolly cupgrass; 62 g ai/ha, preemergence): 0
4 | C#CCOC(=O)c1cccc(NC(=O)c2cc(C(C)(C)C)nn2CC)c1 [Compound 84] | – | – | – | – | – | – | – | 50 | 45 | – | – | 0 | – | – | 10 | – | 0 | – | – | – | Ragweed plant response rating (common ragweed; [18]): 0; Plant response rating, Ragweed (common ragweed; [19]): 0; Plant response rating, Ragweed (common ragweed; [20]): 0; Plant response rating, Ragweed (common ragweed; [21]): 0; Cupgrass, Woolly plant response rating (woolly cupgrass; [18]): 0; Plant response rating, Cupgrass, Woolly (woolly cupgrass; [19]): 0; Plant response rating, Cupgrass, Woolly (woolly cupgrass; [20]): 0; Plant response rating, Cupgrass, Woolly (woolly cupgrass; [21]): 0; Pigweed plant response rating (redroot pigweed; [14]): 0; Pigweed plant response rating (redroot pigweed; [15]): 0; Plant response rating, Blackgrass (blackgrass; [16]): 10; Plant response rating, Corn (corn; Postemergence, 500 g ai/ha, visual rating after 13 to 15 days, scale 0 (no effect) to 100 (complete control)): 20; Corn plant response rating (corn; [17]): 0; Soybean plant response rating (soybean; [18]): 20; Plant response rating, Soybean (soybean; [19]): 20; Plant response rating, Soybean (soybean; [20]): 0; Plant response rating, Soybean (soybean; [21]): 0
5 | C=CCNC(=O)c1cccc(NC(=O)c2sc(C(C)(C)C)nc2C)c1 [Compound 202] | 0 | 80 | 95 | 0 | 10 | – | 60 | 50 | 90 | 100 | 100 | 0 | 0 | 20 | 10 | 10 | – | 0 | 0 | 30 | Plant response rating, Ragweed (common ragweed; [22]): 95; Plant response rating, Cupgrass, Woolly (woolly cupgrass; [22]): 20; Corn plant response rating (0 to 100 scale) (corn; 125 g ai/ha, 0 = no effect, 100 = complete control, preemergence): 0; Plant response rating, Soybean (soybean; [22]): 0
6 | CCN(CC)C(=O)c1cccc(NC(=O)c2nn(C(C)(C)C)nc2C)c1 [Compound 418] | 50 | – | – | 0 | – | – | – | – | – | – | – | – | – | – | – | – | – | 0 | – | – | Plant response rating (0 = no effect, 100 = complete control), Ragweed (common ragweed; 125 g ai/ha, preemergence): 70; Plant response rating, Ragweed (common ragweed; [23]): 100; Plant response rating (0 = no effect, 100 = complete control), Cupgrass, Woolly (woolly cupgrass; 125 g ai/ha, preemergence): 0; Plant response rating, Cupgrass, Woolly (woolly cupgrass; [22]): 10; Plant response rating, Cupgrass, Woolly (woolly cupgrass; [23]): 95; Blackgrass plant response rating (blackgrass; [16]): 30; Blackgrass plant response rating (blackgrass; [20]): 10; Plant response rating (0 to 100 scale), Corn (corn; 125 g ai/ha, 0 is no effect, 100 is complete control, preemergence): 10; Corn plant response rating (corn; [16]): 20; Corn plant response rating (corn; [20]): 20; Plant response rating (0 = no effect, 100 = complete control), Soybean (soybean; 125 g ai/ha, preemergence): 20; Plant response rating, Soybean (soybean; [23]): 90
